# System: not listed separately
# Experiment: Solubility by nephelometry
# Assay type: physicochemical
# Settings: not given
row,SMILES,solubility kinetic [µM]
1,CC(=O)N1CCC(C(=O)N(C)Cc2cc(Cl)cc(-c3cc(-c4cc(C(F)(F)F)ccc4Cl)c(C#N)c(=O)[nH]3)c2O)CC1,> 32
2,COCC(=O)N1CCC(C(=O)N(C)Cc2cc(Cl)cc(-c3cc(-c4cc(C(F)(F)F)ccc4Cl)c(C#N)c(=O)[nH]3)c2O)CC1,> 32
3,CN(Cc1cc(Cl)cc(-c2cc(-c3cc(C(F)(F)F)ccc3Cl)c(C#N)c(=O)[nH]2)c1O)C(=O)C1CCN(C(=O)C2CCCCC2)CC1,> 32
4,CCCC(=O)N1CCC(C(=O)N(C)Cc2cc(Cl)cc(-c3cc(-c4cc(C(F)(F)F)ccc4Cl)c(C#N)c(=O)[nH]3)c2O)CC1,> 32

# System: not listed separately
# Experiment: Solubility at pH 7.4 by shake flask method
# Assay type: physicochemical
# Settings: buffer
row,SMILES,solubility thermodynamic [µM]
1,CC(=O)N1CCC(C(=O)N(C)Cc2cc(Cl)cc(-c3cc(-c4cc(C(F)(F)F)ccc4Cl)c(C#N)c(=O)[nH]3)c2O)CC1,300
2,COCC(=O)N1CCC(C(=O)N(C)Cc2cc(Cl)cc(-c3cc(-c4cc(C(F)(F)F)ccc4Cl)c(C#N)c(=O)[nH]3)c2O)CC1,138

# Molecular target: Baculoviral IAP repeat-containing protein 5 (Homo sapiens, UniProt O15392)
# Sequence (O15392 whole entry): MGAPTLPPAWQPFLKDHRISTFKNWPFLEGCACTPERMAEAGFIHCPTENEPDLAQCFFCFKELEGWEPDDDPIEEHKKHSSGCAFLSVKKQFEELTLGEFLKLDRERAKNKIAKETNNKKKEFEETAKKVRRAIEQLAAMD
# Experiment: Binding affinity to human survivin expressed in Escherichia coli BL21 cells after 30 mins
# Settings: not given
row,SMILES,Kd [µM]
1,CC1(C)NC(=O)N(C/C(COc2ccc(-c3ccc(OC(F)(F)F)cc3)cc2)=N/O)C1=O,< 10
2,Cc1ccnc(NC(=O)C2CCNCC2)c1,130
3,N#Cc1c(-c2ccccc2)cc(-c2cc(Br)ccc2O)[nH]c1=O,5
4,N#Cc1c(-c2cc(-c3ccccc3)ccc2Cl)cc(-c2cc(Br)ccc2O)[nH]c1=O,> 4.3
5,Clc1cccc(Nc2ccc3ccccc3c2)c1,< 10
6,N#Cc1c(-c2ccccc2)cc(-c2ccccc2O)[nH]c1=O,75
7,CCc1oc2ccccc2c1C(=O)c1cc(I)c(O)c(I)c1 [BENZIODARONE],8

# Source: ChEMBL document CHEMBL1147934, “Discovery of a novel small molecule binding site of human survivin” (Bioorg Med Chem Lett, 2007)
